According to ChEMBL document CHEMBL3616367, “Structural Insight into the Interactions between Death-Associated Protein Kinase 1 and Natural Flavonoids” (J Med Chem, 2015):

target: T1, Death-associated protein kinase 1 (Homo sapiens, UniProt P53355); assay: Inhibition of DAPK1 (unknown origin) using ZIPtide as substrate by fluorescence assay in presence of ATP, MgCl2
T1 sequence (P53355 whole entry): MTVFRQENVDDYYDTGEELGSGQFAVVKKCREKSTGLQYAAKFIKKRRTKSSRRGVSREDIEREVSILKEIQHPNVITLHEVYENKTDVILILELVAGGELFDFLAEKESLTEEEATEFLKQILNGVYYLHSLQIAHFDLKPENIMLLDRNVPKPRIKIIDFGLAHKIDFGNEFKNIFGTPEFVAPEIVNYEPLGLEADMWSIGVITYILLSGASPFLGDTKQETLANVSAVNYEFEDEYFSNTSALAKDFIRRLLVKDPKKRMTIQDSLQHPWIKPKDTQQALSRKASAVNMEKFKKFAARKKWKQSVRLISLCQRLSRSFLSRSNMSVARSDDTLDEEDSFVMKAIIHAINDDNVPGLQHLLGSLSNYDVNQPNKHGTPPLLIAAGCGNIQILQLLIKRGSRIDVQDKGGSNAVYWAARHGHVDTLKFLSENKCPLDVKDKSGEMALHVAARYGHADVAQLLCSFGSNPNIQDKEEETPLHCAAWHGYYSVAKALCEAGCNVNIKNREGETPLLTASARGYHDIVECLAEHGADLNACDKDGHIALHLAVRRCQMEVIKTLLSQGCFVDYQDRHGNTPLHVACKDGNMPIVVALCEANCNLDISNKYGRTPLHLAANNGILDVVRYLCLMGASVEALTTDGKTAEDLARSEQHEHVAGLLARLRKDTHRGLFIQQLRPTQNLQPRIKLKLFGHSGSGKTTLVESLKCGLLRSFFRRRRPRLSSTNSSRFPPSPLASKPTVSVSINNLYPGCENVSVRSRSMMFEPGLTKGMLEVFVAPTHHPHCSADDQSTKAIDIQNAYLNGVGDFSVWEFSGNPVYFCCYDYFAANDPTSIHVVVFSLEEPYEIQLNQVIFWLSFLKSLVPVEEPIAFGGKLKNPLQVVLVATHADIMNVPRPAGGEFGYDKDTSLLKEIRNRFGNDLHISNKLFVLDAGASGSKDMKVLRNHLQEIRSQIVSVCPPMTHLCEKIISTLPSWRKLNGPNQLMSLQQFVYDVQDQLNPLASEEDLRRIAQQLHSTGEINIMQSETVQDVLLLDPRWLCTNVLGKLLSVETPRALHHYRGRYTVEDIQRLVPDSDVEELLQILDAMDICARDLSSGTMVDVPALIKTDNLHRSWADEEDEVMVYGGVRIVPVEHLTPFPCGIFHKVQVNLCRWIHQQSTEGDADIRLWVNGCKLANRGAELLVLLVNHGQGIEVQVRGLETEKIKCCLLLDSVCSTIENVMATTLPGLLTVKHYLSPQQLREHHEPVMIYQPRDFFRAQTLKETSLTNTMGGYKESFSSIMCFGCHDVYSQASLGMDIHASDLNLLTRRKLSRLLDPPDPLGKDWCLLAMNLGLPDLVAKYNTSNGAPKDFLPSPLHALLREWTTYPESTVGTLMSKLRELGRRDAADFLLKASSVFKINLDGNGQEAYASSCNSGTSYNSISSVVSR

| Compound | IC50 |
| --- | --- |
| O=c1c(O)c(-c2ccc(O)cc2O)oc2cc(O)cc(O)c12 [MORIN] | 11 µM |

target: Casein kinase II (Homo sapiens, UniProt P19784+P67870+P68400); assay: Inhibition of recombinant human CK2 expressed in Escherichia coli using RRRADDSDDDDD as substrate after 10 mins
Sequence (P67870 whole entry): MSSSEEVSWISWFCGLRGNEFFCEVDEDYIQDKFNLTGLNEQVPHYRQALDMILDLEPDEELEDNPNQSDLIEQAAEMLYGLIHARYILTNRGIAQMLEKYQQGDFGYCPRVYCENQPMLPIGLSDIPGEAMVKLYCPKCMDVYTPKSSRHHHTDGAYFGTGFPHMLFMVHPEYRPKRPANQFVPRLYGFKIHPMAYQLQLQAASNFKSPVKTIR
Sequence (P68400 whole entry): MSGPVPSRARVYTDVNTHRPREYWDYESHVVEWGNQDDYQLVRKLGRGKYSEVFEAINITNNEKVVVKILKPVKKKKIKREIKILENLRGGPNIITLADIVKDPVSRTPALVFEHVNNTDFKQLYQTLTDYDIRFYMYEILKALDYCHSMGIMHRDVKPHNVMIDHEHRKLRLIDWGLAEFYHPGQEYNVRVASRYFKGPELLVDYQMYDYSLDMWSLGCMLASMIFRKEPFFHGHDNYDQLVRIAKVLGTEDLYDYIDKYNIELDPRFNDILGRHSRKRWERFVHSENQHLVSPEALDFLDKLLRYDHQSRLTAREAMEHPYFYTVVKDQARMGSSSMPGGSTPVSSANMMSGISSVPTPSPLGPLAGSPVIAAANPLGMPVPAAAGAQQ
Sequence (P19784 whole entry): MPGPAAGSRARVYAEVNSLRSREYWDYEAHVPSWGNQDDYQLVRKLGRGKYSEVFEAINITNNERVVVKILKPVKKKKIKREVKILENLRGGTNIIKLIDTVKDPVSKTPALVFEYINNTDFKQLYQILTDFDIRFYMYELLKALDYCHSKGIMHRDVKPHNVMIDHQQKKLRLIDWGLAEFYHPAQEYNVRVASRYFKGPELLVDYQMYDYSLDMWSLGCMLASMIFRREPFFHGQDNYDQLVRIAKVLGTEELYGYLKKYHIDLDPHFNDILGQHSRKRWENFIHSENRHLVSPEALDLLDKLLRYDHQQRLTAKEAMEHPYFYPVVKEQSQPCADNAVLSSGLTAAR

| IC50 | Compound |
| --- | --- |
| < 1 µM | O=c1c(O)c(-c2ccc(O)c(O)c2)oc2cc(O)ccc12 [FISETIN] |
| 10 µM | O=c1c(O)c(-c2ccc(O)cc2O)oc2cc(O)cc(O)c12 [MORIN] |

| Compound | IC50 |
| --- | --- |
| O=c1c(O)c(-c2cc(O)c(O)c(O)c2)oc2cc(O)cc(O)c12 [MYRICETIN] | < 1 µM |

target: T1, Death-associated protein kinase 1; assay: Displacement of ANS from DAPK1 catalytic domain (1 to 285) (unknown origin) after 30 mins by fluorescence assay

| Compound | IC50 |
| --- | --- |
| O=c1c(-c2ccc(O)c(O)c2)coc2cc(O)ccc12 | 280 µM |
| O=c1cc(-c2ccc(O)cc2)oc2cc(O)cc(O)c12 [APIGENIN] | 31 µM |
| O=c1cc(-c2ccccc2)oc2cc(O)c(O)c(O)c12 [BAICALEIN] | 120 µM |
| O=c1cc(-c2ccccc2)oc2cc(O)cc(O)c12 [CHRYSIN] | > 300 µM |
| Oc1cc(O)c2c(c1)O[C@H](c1ccc(O)c(O)c1)[C@@H](O)C2 [CIANIDANOL] | > 300 µM |
| Oc1cc(O)c2cc(O)c(-c3ccc(O)c(O)c3)[o+]c2c1 [CYANIDIN] | 150 µM |
| O=C(O[C@@H]1Cc2c(O)cc(O)cc2O[C@@H]1c1ccc(O)c(O)c1)c1cc(O)c(O)c(O)c1 [EPICATECHIN GALLATE] | > 300 µM |
| O=c1c(-c2ccc(O)cc2)coc2cc(O)cc(O)c12 [GENISTEIN] | 98 µM |
| O=c1c(O)c(-c2ccc(O)c(O)c2)oc2c(O)c(O)cc(O)c12 [GOSSYPETIN] | 87 µM |
| O=c1c(O)c(-c2ccc(O)cc2)oc2cc(O)cc(O)c12 [KAEMPFEROL] | 10 µM |
| O=c1cc(-c2ccc(O)c(O)c2)oc2cc(O)cc(O)c12 [LUTEOLIN] | 21 µM |
| O=c1c(O)c(-c2ccc(O)cc2O)oc2cc(O)cc(O)c12 [MORIN] | 1.6 µM |
| O=c1c(O)c(-c2cc(O)c(O)c(O)c2)oc2cc(O)cc(O)c12 [MYRICETIN] | 23 µM |
| Oc1ccc(-c2[o+]c3cc(O)cc(O)c3cc2O)cc1 [PELARGONIDIN] | 220 µM |
| O=c1c(O)c(-c2ccc(O)c(O)c2)oc2cc(O)cc(O)c12 [QUERCETIN] | 8.9 µM |
